# Test results: ChEMBL document CHEMBL1143236, “Design, synthesis, FGF-1 binding, and molecular modeling studies of conformationally flexible heparin mimetic disaccharides” (Bioorg Med Chem Lett, 2008)
# Target: Fibroblast growth factor 1 (Homo sapiens, UniProt P05230)
# Assay: Binding affinity at FGF1
# Chain of Fibroblast growth factor 1 (P05230 whole entry): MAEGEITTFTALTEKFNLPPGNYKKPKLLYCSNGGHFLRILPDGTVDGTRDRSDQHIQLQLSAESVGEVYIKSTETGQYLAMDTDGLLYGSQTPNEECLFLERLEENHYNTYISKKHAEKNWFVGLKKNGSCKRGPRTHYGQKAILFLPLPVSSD
row,SMILES,Kd [µM]
1,CO[C@@H]1OC[C@@H](O[C@H]2O[C@H](CO)[C@H](O)[C@H](O)[C@H]2OS(=O)(=O)O)[C@H](OS(=O)(=O)O)[C@H]1OS(=O)(=O)O,1400
2,CO[C@@H]1O[C@H](COS(=O)(=O)O)[C@@H](O[C@H]2O[C@H](COS(=O)(=O)O)[C@H](O)[C@H](O)[C@H]2OS(=O)(=O)O)[C@H](OS(=O)(=O)O)[C@H]1OS(=O)(=O)O,21.8
3,CO[C@@H]1O[C@H](COS(=O)(=O)O)[C@@H](O[C@H]2O[C@H](CO)[C@H](O)[C@H](O)[C@H]2OS(=O)(=O)O)[C@H](OS(=O)(=O)O)[C@H]1OS(=O)(=O)O,77.5
4,CO[C@@H]1O[C@H](COS(=O)(=O)O)[C@@H](O[C@H]2O[C@H](COS(=O)(=O)O)[C@H](OC)[C@H](OC)[C@H]2OS(=O)(=O)O)[C@H](OS(=O)(=O)O)[C@H]1OS(=O)(=O)O,47.9
5,COC[C@H]1O[C@H](O[C@H]2[C@H](OS(=O)(=O)O)[C@@H](OS(=O)(=O)O)[C@H](OC)O[C@@H]2COS(=O)(=O)O)[C@H](OS(=O)(=O)O)[C@@H](OC)[C@H]1OC,233
